According to patent publication US10308654B2, “Preparation and use of kinase inhibitor” (CHANGZHOU LONGTHERA PHARMACEUTICALS INC, priority 2015, dated 2019):

Experiments:
CDK4/CyclinD1 = CDK4/CyclinD1 (Homo sapiens (Human), UniProt P11802); experiment: CDK kinase activity assay (LANCE TR-FRET, ULight-4E-BP1 substrate); format: biochemical; conditions: CDK4/CyclinD1, 60 minutes incubation
Method: (§1) The CDK kinase used in this experiment: CDK4/CyclinD1 (invitrogen, Item No: PV4400); CDK6/CyclinD1 (invitrogen, Item No: PV4401); CDK1/CyclinB (invitrogen, Item No: PV3292).
(§2) Reagents used: Substrate is ULight-4E-BP1 (PerkinElmer, Item No: TRF0128); antibody is Eu-labeledanti-phospho-eIF4E-bindingprotein1 (Thr37/46) (Perkin-Elmer, Item No: TRF0216).
(§3) The test compound was dissolved in dimethyl sulfoxide and the solution was diluted to each concentration gradient with a buffer (50 mM HEPES, 10 mM MgCl2, 1 mM EGTA, 2 mM DTT and 0.01% Tween20) according to the test needs, the concentration of dimethyl sulfoxide was 4%. The buffer was then used to dilute ATP and the substrate ULight-4E-BP1 to prepare the mixture of 800 μM ATP and 200 nM substrate for further use. 2.5 μL of mixture of substrate and ATP or 2.5 μL of substrate was added to the wells, and then 2.5 μL of compound or 4% buffer of dimethyl sulfoxide was added, finally 5 μL of enzyme (final concentration was 0.66 μg/mL) was added, incubated avoiding light at room temperature for 60 minutes. 5 μL of EDTA stop buffer (final concentration was […]) diluted with 1×detectionbuffer (LANCEDetectionBuffer, 10×, PerkinElmer, CR97-100) was added to each well, and then 5 μL of antibody (final concentration was 2 nM) diluted with 1×detectionbuffer was added, incubated avoiding light at room temperature for 60 minutes. Perkin Elmer EnVision® TRFRETmode (Excitation wavelength: 320 nm, emission wavelength: 615 nm and 665 nm) was used to measure plates.
(§4) The inhibition rate of the sample was determined by the following formula: […]
(§5) IC50 values were calculated using GraphPadPrism software.

Colo205 cells = experiment: Proliferation inhibitory activity against human colon cancer cell line Colo205 (CCK8); format: cell-based; conditions: COLO 205, 96 hours
Method: In vitro cell assay described below could determine the proliferation inhibitory activity against human colon cancer cell line of the test compounds, and their activities could be represented by IC50 value.
Colo205 cells (Chinese Academy of Sciences typical culture storage committee cell bank) were inoculated in 96-well culture plate with a suitable cell concentration of 2000 cells per hole, 140 μL of medium per well, then incubated in a carbon dioxide incubator at 37° C. overnight. 10 μL of different concentrations of the test compounds were added and reacted for 96 hours, and then the solvent control group (negative control) was set. The proliferation inhibitory activities against tumor cells of the test compounds were tested by CCK8 (CellCounting Kit-8, Item No: CK04, purchased from Tongren Chemical) method after 96 hours. The full-wavelength microplate reader SpectraMax190 was used for reading, the measurement wavelength was 450 nm.
as §4
IC50 value was calculated by four parameter regression using microplate reader with random software.

CDK1/CyclinB = CDK1/CyclinB (Homo sapiens (Human), UniProt P06493); experiment: CDK kinase activity assay (LANCE TR-FRET, ULight-4E-BP1 substrate); format: biochemical; conditions: 60 minutes incubation
Chain of CDK1/CyclinB (P06493 whole entry): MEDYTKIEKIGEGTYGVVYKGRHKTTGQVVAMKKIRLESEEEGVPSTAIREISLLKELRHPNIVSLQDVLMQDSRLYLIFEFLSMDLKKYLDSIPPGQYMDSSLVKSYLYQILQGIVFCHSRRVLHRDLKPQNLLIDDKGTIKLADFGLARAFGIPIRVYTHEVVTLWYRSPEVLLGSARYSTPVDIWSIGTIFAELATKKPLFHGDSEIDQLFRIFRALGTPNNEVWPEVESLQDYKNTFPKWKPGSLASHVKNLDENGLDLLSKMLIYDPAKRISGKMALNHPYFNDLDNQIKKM
Chain of CDK1/CyclinB (P14635 whole entry partner): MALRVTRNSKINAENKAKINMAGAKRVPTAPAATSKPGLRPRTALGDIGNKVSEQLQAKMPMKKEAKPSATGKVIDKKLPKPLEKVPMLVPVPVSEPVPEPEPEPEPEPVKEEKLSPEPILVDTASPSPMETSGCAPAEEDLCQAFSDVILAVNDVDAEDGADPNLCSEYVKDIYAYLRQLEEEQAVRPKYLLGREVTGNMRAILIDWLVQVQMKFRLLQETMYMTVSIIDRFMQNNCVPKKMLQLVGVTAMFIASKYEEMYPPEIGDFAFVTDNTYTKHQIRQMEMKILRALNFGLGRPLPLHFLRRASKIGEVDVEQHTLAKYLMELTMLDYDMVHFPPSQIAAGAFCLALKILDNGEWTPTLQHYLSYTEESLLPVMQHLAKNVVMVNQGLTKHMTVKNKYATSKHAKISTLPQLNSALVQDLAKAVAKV
Method: as §1, §2, §3, §4, §5

Chain of CDK4/CyclinD1 (P11802 whole entry): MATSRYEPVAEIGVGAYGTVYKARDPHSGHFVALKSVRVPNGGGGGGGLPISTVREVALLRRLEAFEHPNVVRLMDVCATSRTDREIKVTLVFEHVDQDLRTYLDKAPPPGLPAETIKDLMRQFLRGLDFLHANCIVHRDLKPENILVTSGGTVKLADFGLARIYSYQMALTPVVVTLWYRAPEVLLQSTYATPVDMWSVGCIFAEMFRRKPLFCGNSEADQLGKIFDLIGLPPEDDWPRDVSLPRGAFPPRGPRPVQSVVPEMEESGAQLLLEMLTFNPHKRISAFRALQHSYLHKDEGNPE
Chain of CDK4/CyclinD1 (P24385 whole entry partner): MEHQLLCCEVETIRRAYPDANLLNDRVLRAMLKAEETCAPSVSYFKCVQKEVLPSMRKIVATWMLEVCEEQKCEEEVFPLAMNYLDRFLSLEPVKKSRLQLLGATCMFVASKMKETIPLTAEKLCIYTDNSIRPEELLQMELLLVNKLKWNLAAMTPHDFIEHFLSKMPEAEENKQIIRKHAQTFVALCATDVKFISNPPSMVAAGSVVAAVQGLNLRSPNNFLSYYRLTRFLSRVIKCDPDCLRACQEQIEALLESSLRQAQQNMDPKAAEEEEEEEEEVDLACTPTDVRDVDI

SMILES	IC50 (CDK4/CyclinD1) [nM]	IC50 (Colo205 cells) [nM]	IC50 (CDK1/CyclinB) [nM]
CN(C)C(=O)c1cc2cnc(Nc3ccc(N4CCN(C(=O)OC(C)(C)C)CC4)cn3)nc2n1N1CCCCC1 [Example 12]	< 100	> 2000	–
CN(C)C(=O)c1cc2cnc(Nc3ccc(N4CCNCC4)cn3)nc2n1N1CCCCC1 [Example 13]	< 100	500 to 2000	–
CN1CCN(c2ccc(Nc3ncc4cc(C(=O)N(C)C)n(N5CCCCC5)c4n3)nc2)CC1 [Example 14, N,N-dimethyl-2-((5-(4-methylpiperazin-1-yl)pyridin-2-yl)amino)-7-(piperidin-1-yl)-7H-pyrrolo[2,3-d]pyrimidine-6-carboxamide]	< 100	500 to 2000	> 500
CN(C)C(=O)c1cc2cnc(Nc3ccc(N4CCNCC4)cn3)nc2n1N1CCCCCC1 [Example 15, 7-(hexamethyleneimin-1-yl)N,N-dimethyl-2-((5-(piperazin-1-yl)pyridin-2-yl)amino)-7H-pyrrolo[2,3-d]pyrimidine-6-carboxamide]	< 100	> 2000	> 500
CN1CCN(c2ccc(Nc3ncc4cc(C(=O)N5CCC5)n(N5CCCCC5)c4n3)nc2)CC1 [Example 16, Azetidin-1-yl-(2-((5-(4-methylpiperazin-1-yl)pyridin-2-yl)amino)-7-(piperidin-1-yl)-7H-pyrrolo[2,3-d]pyrimidin-6-yl)methanone]	< 100	500 to 2000	> 500
O=C(c1cc2cnc(Nc3ccc(N4CCNCC4)cn3)nc2n1N1CCCCC1)N1CCC1 [Example 17, Azetidin-1-yl-(2-((5-(piperazin-1-yl)pyridin-2-yl)amino)-7-(piperidin-1-yl)-7H-pyrrolo[2,3-d]pyrimidin-6-yl)methanone]	< 100	> 2000	> 500
CNC(=O)c1cc2cnc(Nc3ccc(N4CCNCC4)cn3)nc2n1N1CCCCC1 [Example 18, N-methyl-2-((5-(piperazin-1-yl)pyridin-2-yl)amino)-7-(piperidin-1-yl)-7H-pyrrolo[2,3-d] pyrimidine-6-carboxamide]	< 100	500 to 2000	> 500

More lines, now with the values ahead:

IC50 (CDK4/CyclinD1) [nM]	IC50 (Colo205 cells) [nM]	IC50 (CDK1/CyclinB) [nM]	SMILES
< 100	> 2000	–	CN(C)C(=O)c1cc2cnc(Nc3ccc(N4CCN(C(=O)OC(C)(C)C)CC4)cn3)nc2n1N1CCCC1 [Example 19, Tert-butyl 4-(6-((6-(dimethylcarbamoyl)-7-(pyrrolidin-1-yl)-7H-pyrrolo[2,3-d]pyrimidin-2-yl)amino)pyridin-3-yl)piperazine-1-carboxylate]
< 100	500 to 2000	> 500	CN(C)C(=O)c1cc2cnc(Nc3ccc(N4CCNC(C)(C)C4)cn3)nc2n1N1CCCCC1 [Example 20, 2-((5-(3,3-dimethylpiperazin-1-yl)pyridin-2-yl)amino)-N,N-dimethyl-7-(piperidin-1-yl)-7H-pyrrolo[2,3-d]pyrimidine-6-carboxamide]
< 100	> 2000	> 500	CN1CCN(c2ccc(Nc3ncc4cc(C(=O)N5CCCC5)n(N5CCCCC5)c4n3)nc2)CC1 [Example 21, (2-((5-(4-methylpiperazin-1-yl)pyridin-2-yl)amino)-7-(piperidin-1-yl)-7H-pyrrolo[2,3-d]pyrimidin-6-yl)-pyrrolidin-1-ylmethanone]
100 to 500	–	–	CN1CCN(c2ccc(Nc3ncc4cc(C(=O)N(C)C)n(N5CCOCC5)c4n3)nc2)CC1 [Example 22, N,N-dimethyl-2-((5-(4-methylpiperazin-1-yl)pyridin-2-yl)amino)-7-morpholino-7H-pyrrolo[2,3-d]pyrimidine-6-carboxamide]
< 100	> 2000	> 500	O=C(c1cc2cnc(Nc3ccc(N4CCNCC4)cn3)nc2n1N1CCCCC1)N1CCCC1 [Example 23, (2-((5-(piperazin-1-yl)pyridin-2-yl)amino)-7-(piperidin-1-yl)-7H-pyrrolo[2,3-d]pyrimidin-6-yl)-pyrrolidin-1-ylmethanone]
< 100	> 2000	> 500	CN(C)C(=O)c1cc2cnc(Nc3ccc(N4CCNCC4)cn3)nc2n1N1CCCC1 [Example 24, N,N-dimethyl-2-((5-(piperazin-1-yl)pyridin-2-yl)amino)-7-(pyrrolidin-1-yl)-7H-pyrrolo[2,3-d]pyrimidine-6-carboxamide]
< 100	> 2000	> 500	CN(C)C(=O)c1cc2cnc(Nc3ccc(N4CCOCC4)cn3)nc2n1N1CCCCC1 [Example 25, N,N-dimethyl-2-((5-morpholinopyridin-2-yl)amino)-7-(piperidin-1-yl)-7H-pyrrolo[2,3-d]pyrimidine-6-carboxamide]
< 100	500 to 2000	> 500	CCN1CCN(c2ccc(Nc3ncc4cc(C(=O)N(C)C)n(N5CCCCC5)c4n3)nc2)CC1 [Example 26, N,N-dimethyl-2-((5-(4-ethylpiperazin-1-yl)pyridin-2-yl)amino)-7-(piperidin-1-yl)-7H-pyrrolo[2,3-d]pyrimidine-6-carboxamide]
< 100	500 to 2000	> 500	C[C@@H]1CN(c2ccc(Nc3ncc4cc(C(=O)N(C)C)n(N5CCCCC5)c4n3)nc2)C[C@H](C)N1 [Example 27, 2-((5-((3S,5R)-3,5-dimethylpiperazin-1-yl)pyridin-2-yl)amino)-N,N-dimethyl-7-(piperidin-1-yl)-7H-pyrrolo[2,3-d]pyrimidine-6-carboxamide]
100 to 500	–	–	CN(C)C(=O)c1cc2cnc(Nc3ccc(N4CCNCC4)cn3)nc2n1N1CCOCC1 [Example 28, N,N-dimethyl-2-((5-(piperazin-1-yl)pyridin-2-yl)amino)-7-morpholino-7H-pyrrolo[2,3-d]pyrimidine-6-carboxamide]
< 100	> 2000	> 500	CCN(CC)C(=O)c1cc2cnc(Nc3ccc(N4CCNCC4)cn3)nc2n1N1CCCCC1 [Example 29, N,N-diethyl-2-((5-(piperazin-1-yl)pyridin-2-yl)amino)-7-(piperidin-1-yl)-7H-pyrrolo[2,3-d]pyrimidine-6-carboxamide]
